According to patent US8470763B2, “Alpha-amino-N-substituted amides, pharmaceutical composition containing them and uses thereof” (Shanghai Institute of Materia Medica Chinese Academy of …, priority 2007, dated 2013):
Like-named read-outs stand apart in the source and are kept apart here.

Legend:
[1] = tested on: MDA-MB-435S human breast cancer cells; test: MTT assay, proliferation of MDA-MB-435S cells; type: cell-based; conditions: Homo sapiens, 72 h
Protocol: The experiments for evaluating the antineoplasmic activities of the compounds according to the present invention were carried out, and the compounds' antineoplasmic activities in vitro was evaluated by determining the inhibitory activities thereof against the proliferation of MDA-MB-435S human breast cancer cells.
The antineoplasmic activities were determined by using the MTT assay, which is based on the metabolic reduction of 3-(4,5-dimethylthylthiazol-2-yl)-2,5-diphenyl tetrazolium bromide (MTT). The dehydrogenases, which are related to NADP (niacinamide adenine dinucleotide phosphate, coenzyme) and present in mitochondrions of living cells, can reduce the yellow MTT to an insoluble, dark purple formazan. […] After the formazan is dissolved in DMSO, the optical density is determined on an ELISA Reader at the wavelength of 550/690 nm.
(§1) The adhered MDA-MB-4355 cells in logarithmic growth phase, were digested by 0.05% trypsogen, counted and formulated into a cell suspension with a medium. After counted, the suspension was inoculated on a 96-well plate with 3000 cells and 100 μl medium per well. The inoculated 96-well plate was placed overnight in an incubator at 37 with 5% CO2 to allow the cells to adhere to the wall. On the next day, the administration of the drugs started. Before the administration, into some of the control wells, each was added 20 μl of the MTT solution (5 mg/ml) without removing the medium therein. After incubated for 3 h, the absorption at A550/690 was recorded as the initial cell concentration. For the drug wells, each was added into 100 μl of medium containing 2 μl of compound solution. For the control wells which use DMSO as background control, each was also added into 100 μl of medium containing 2 μl of DMSO. In addition, each experiment was carried out with adriamycin as the positive control. Subsequently, the 96-well plate was incubated in an incubator at 37 with 5% CO2 for 72 h. each compound was tested in triplicate wells (6 μl of compound solution was put into a sterilized eppendorf centrifuge tube, then 300 μl of medium was added and mixed well, and the mixture was distributed into 3 wells respectively), and at six concentrations which form a gradient. 3 days (72 h) later, 40 μl of MTT solution (5 mg/ml) was put into each well directly (without sucking off the medium therein), and the plate was incubated in the incubator for 3 h and then taken out. The liquid in each well was sucked off, and then 100 μl of DMSO was put into each well to dissolve the crystal completely with slight shake. The absorbance of the solution in each well was determined at 550/690 nm on an ELISA Reader as the cell density after treated with the compound. The growth inhibition of compound against breast cancer cells MDA-MB-435S was represented by the cell survival rate, and IC50 was determined from the profile of cell survival rate vs compound concentration. The calculating formula was as follows: cell survival rate=[(cells+compound)A550/690/(cells+compound vector DMSO)A550/690]×100%

[2] = tested on: colon cancer cells HCT116; test: MTT assay, HCT116 cells; type: cell-based; conditions: Homo sapiens, HCT-116, 72 h
Protocol: as §1
(§2) MDA-MB-435S: human breast cancer cells; HCT116: colon cancer cells; A549: lung adenocarcinoma cells; Hela: uterine cervix cancer cells.
(§3) The tests were performed in the same manner as that of experimental example 1, except that for Hela cells, after counted, each well was seeded with 1000 cells and 100 μl of medium on a 96-well plate.

[3] = tested on: lung adenocarcinoma cells A549; test: MTT assay, A549 cells; type: cell-based; conditions: Homo sapiens, 72 h
Protocol: as §1, §2, §3

[4] = tested on: Hela uterine cervix cancer cells; test: MTT assay, Hela cells; type: cell-based; conditions: Homo sapiens, 72 h, 1000 cells per well
Protocol: as §1, §2, §3

[5] = tested on: A549 (Lung Cancer); test: SRB assay, A549; type: cell-based; conditions: Homo sapiens, 72 h, read-out: IC50 (μM) (mean ± SD)
Protocol: (§4) Experimental method: The antineoplasmic activities in vitro of the compounds were determined by SRB assay. The detailed procedure was as follows. The cells in the logarithmic growth phase were inoculated on a 96-well microculture plate with a suitable density (100 μl/well), and allowed to attach overnight, followed by addition of the compound at different concentrations to be treated for 72 h. For each concentration, the test was carried out in triplicate wells, and included control wells containing the aqueous medium of normal saline and a blank well containing all medium without cells for zeroing. After cultured overnight, the cells were treated with the compound at different concentrations for 72 h. After the treatment, the culture medium was removed, and the cells were fixed with 10% (wt/vol) trichloroacetic acid (100 μL/well) at 4° C. for 1 h. The cells were then washed with distilled water for 5 times, and died at room temperature, followed by addition of a SRB solution (4 mg/mL, dissolved in 1% glacial acetic acid) at 100 μL/well. The cells were incubated and stained at room temperature for 15 min, then washed with 1% glacial acetic acid for 5 times to remove the uncombined SRB, and died at room temperature. 100 μL of 10 mM Tris solution was added in each well, and the Optical Density (OD) were measured at a wavelength of 560 nm on a VERSMax ELISA Reader (Molecule Devices). The growth inhibition of the compound against tumor cells was calculated according to the following equation: Growth inhibition (%)=(ODcontrol−ODtreated)/ODcontrol×100%.
(§5) IC50 (the concentration of the sample compound that is required for 50% inhibition of cell growth) was calculated by using the Logit method based on the measurement, and each test was repeated for 3 times to calculate the mean value and standard deviation.

[6] = tested on: SGC-7901 (Gastric Cancer); test: SRB assay, SGC-7901; type: cell-based; conditions: Homo sapiens, 72 h, read-out: IC50 (μM) (mean ± SD)
Protocol: as §4, §5

[7] = tested on: HCT-116 (Colon Cancer); test: SRB assay, HCT-116; type: cell-based; conditions: Homo sapiens, 72 h, read-out: IC50 (μM) (mean ± SD)
Protocol: as §4, §5

[8] = tested on: HO-8910 (Ovarian Cancer); test: SRB assay, HO-8910; type: cell-based; conditions: 72 h, read-out: IC50 (μM) (mean ± SD)
Protocol: as §4, §5

[9] = tested on: DU145 (Prostatic Cancer); test: SRB assay, DU145; type: cell-based; conditions: Homo sapiens, DU-145, 72 h, read-out: IC50 (μM) (mean ± SD)
Protocol: as §4, §5

[10] = tested on: BEL-7402 (Liver Cancer); test: SRB assay, BEL-7402; type: cell-based; conditions: Homo sapiens, 72 h, read-out: IC50 (μM) (mean ± SD)
Protocol: as §4, §5

[11] = tested on: SMMC-7721 (Liver Cancer); test: SRB assay, SMMC-7721; type: cell-based; conditions: Homo sapiens, 72 h, read-out: IC50 (μM) (mean ± SD)
Protocol: as §4, §5

[12] = tested on: Zip177 (Liver Cancer); test: SRB assay, Zip177; type: cell-based; conditions: 72 h, read-out: IC50 (μM) (mean ± SD)
Protocol: as §4, §5

[13] = tested on: HepG2 (Liver Cancer); test: SRB assay, HepG2; type: cell-based; conditions: Homo sapiens, 72 h, read-out: IC50 (μM) (mean ± SD)
Protocol: as §4, §5

[14] = tested on: 7404 (Liver Cancer); test: SRB assay, 7404; type: cell-based; conditions: 72 h, read-out: IC50 (μM) (mean ± SD)
Protocol: as §4, §5

[15] = tested on: MDA-MB-435 (Breast Cancer); test: SRB assay, MDA-MB-435; type: cell-based; conditions: Homo sapiens, 72 h, read-out: IC50 (μM) (mean ± SD)
Protocol: as §4, §5

[16] = tested on: HPAF-II (Pancreatic Cancer); test: SRB assay, HPAF-II; type: cell-based; conditions: Homo sapiens, 72 h, read-out: IC50 (μM) (mean ± SD)
Protocol: as §4, §5

[17] = tested on: HMEC (Others); test: SRB assay, HMEC; type: cell-based; conditions: Homo sapiens, 72 h, read-out: IC50 (μM) (mean ± SD)
Protocol: as §4, §5

[18] = tested on: human tumor cells; conditions: background; cited from earlier work
[19] = tested on: heterograft of MDA-MB-4355 human breast cancer cells; conditions: background; cited from earlier work
[20] = background; cited from earlier work
[21] = clinical study entered 2001; cited from earlier work
[22] = note: MDA-MB-435S, read-out: IC50 (MDA-MB-435)
[23] = read-out: Cell Survival Rate IC50

IC50 [1, 22] | IC50 [2] | IC50 [3] | IC50 [4] | IC50 [5] | IC50 [6] | IC50 [7] | IC50 [8] | IC50 [9] | IC50 [10] | IC50 [11] | IC50 [12] | IC50 [13] | IC50 [14] | IC50 [15] | IC50 [16] | Structure (SMILES) | IC50 [1, 23] | IC50 [17] | also measured
5170 ± 941 nM | 1500 ± 215 nM | 1550 ± 241 nM | 572 ± 171 nM | – | – | – | – | – | – | – | – | – | – | – | – | CCOC(=O)CNC(=O)[C@H](C)NC(=O)[C@H](OC)[C@H](O)[C@@H](O)[C@H](O)/C=C/C(C)(C)C [Compound L418] | 5170 nM | – | –
2830 ± 695 nM | 1510 ± 283 nM | 594 ± 69 nM | 822 ± 175 nM | – | – | – | – | – | – | – | – | – | – | – | – | CO[C@@H](C(=O)N[C@@H](C)C(=O)NCCOC1CCCCC1)[C@H](O)[C@@H](O)[C@H](O)/C=C/C(C)(C)C [Compound L458e] | 2190 nM | – | –
541 ± 205 nM | 130 ± 15 nM | 219 ± 30 nM | 188 ± 42 nM | – | – | – | – | – | – | – | – | – | – | – | – | CO[C@@H](C(=O)N[C@@H](C)C(=O)NCCOC(=O)C1CC=CCC1)[C@H](O)[C@@H](O)[C@H](O)/C=C/C(C)(C)C (stereo partly drawn) [Compound L484] | 540 nM | – | –
284 ± 100 nM | 97 ± 13 nM | 75 ± 14 nM | 165 ± 30 nM | – | – | – | – | – | – | – | – | – | – | – | – | CO[C@@H](C(=O)N[C@@H](C)C(=O)NCCOC(=O)C1CCCCC1)[C@H](O)[C@@H](O)[C@H](O)/C=C/C(C)(C)C [Compound L486d] | 280 nM | – | –
398 ± 128 nM | 71 ± 7 nM | 76 ± 8 nM | 158 ± 32 nM | 0.03 ± 0.01 µM | 2.21 ± 0.67 µM | 0.35 ± 0.11 µM | > 20 µM | 0.29 ± 0.06 µM | 0.33 ± 0.21 µM | 0.65 ± 0.26 µM | 0.4 ± 0.21 µM | 0.56 ± 0.08 µM | > 20 µM | 0.08 ± 0.01 µM | 1.57 ± 0.35 µM | CO[C@@H](C(=O)N[C@@H](C)C(=O)NCCOC(=O)CCc1ccccc1)[C@H](O)[C@@H](O)[C@H](O)/C=C/C(C)(C)C [Compound L508] | – | 0.21 ± 0.02 µM | –
201 ± 47 nM | 51 ± 5 nM | 98 ± 18 nM | 24 ± 3 nM | 0.08 ± 0.02 µM | 1.97 ± 0.86 µM | 0.58 ± 0.25 µM | > 20 µM | 0.14 ± 0.01 µM | 0.28 ± 0.01 µM | 0.41 ± 0.15 µM | 0.26 ± 0.05 µM | 1.11 ± 0.49 µM | > 20 µM | 0.14 ± 0.13 µM | 2.01 ± 1.06 µM | CCOC(=O)C(COC(=O)C1CCCCC1)NC(=O)[C@H](C)NC(=O)[C@H](OC)[C@H](O)[C@@H](O)[C@H](O)/C=C/C(C)(C)C (stereo partly drawn) [Compound L558a] | 200 nM | 0.25 ± 0.14 µM | –
510 ± 124 nM | 110 ± 13 nM | 261 ± 65 nM | – | – | – | – | – | – | – | – | – | – | – | – | – | COc1cccc2c1C(=O)c1c(O)c3c(c(O)c1C2=O)C[C@@](O)(C(=O)CO)C[C@@H]3O[C@H]1C[C@H](N)[C@H](O)[C@H](C)O1 [adriamycin, reference compound] | 510 nM | – | –
– | – | – | – | – | – | – | – | – | – | – | – | – | – | – | – | CCCCCCCCCCCCCC(=O)O[C@H]1CC[C@H](NC(=O)[C@H](OC)[C@H](O)[C@@H](O)[C@H](O)/C=C/C(C)C)C(=O)N(C)C1 [bengamide B] | – | – | activities against human tumor cells in vitro [18]: nanomolar level; growth of heterograft in vivo [19]: remarkably depress the growth; solubility [20]: poor solubility

Structure (SMILES) | IC50 [1, 22] | IC50 [2] | IC50 [3] | IC50 [4] | IC50 [5] | IC50 [6] | IC50 [7] | IC50 [8] | IC50 [9] | IC50 [10] | IC50 [11] | IC50 [12] | IC50 [13] | IC50 [14] | IC50 [15] | IC50 [16] | IC50 [1, 23] | IC50 [17] | also measured
CO[C@@H](C(=O)N[C@H]1CC[C@@H](OC(=O)C2CCCCC2)CNC1=O)[C@H](O)[C@@H](O)[C@H](O)/C=C/C(C)(C)C [LAF389, reference compound] | – | – | – | – | 0.05 ± 0.01 µM | 4.96 ± 0.4 µM | 0.63 ± 0.18 µM | > 20 µM | 0.42 ± 0.21 µM | 0.56 ± 0.4 µM | 1.25 ± 0.76 µM | 2.79 ± 0.15 µM | 0.21 ± 0.09 µM | > 20 µM | 0.29 ± 0.02 µM | 3.23 ± 2.13 µM | 610 nM | 0.83 ± 0.45 µM | activities against human tumor cells in vitro [18]: comparable to Bengamide B; growth of heterograft in vivo [19]: comparable to Bengamide B; solubility [20]: good solubility; side effects in clinical study [21]: side effects such as taste disturbance, blurred vision; therapeutic effects in clinical study [21]: did not possess the foreseen therapeutic effects
